Reference: patent US20240366624A1, “METHODS AND COMPOSITIONS FOR TREATING THROMBOTIC DISEASE” (Washington University, priority 2023, published 2024)

Assays:
[1] = system: human platelets; experiment: Ca2+ mobilization (FLIPR), human platelets; format: cell-based; conditions: thrombin or A23187
Protocol: Ca^2+ mobilization was measured as described previously. WT control and Ero1α-null platelets (1×10^8/mL) were suspended in HEPES-Tyrode buffer, pH 7.4. Cells were incubated with a Ca^2+ dye (FLIPR Ca^2+5 assay kit; Molecular Devices) for 30 minutes at 37° C. in the dark, followed by stimulation with thrombin (0.1 U/mL), A23187 (2 μM) or thapsigargin (10-20 μM). After measuring Ca^2+ release, 1 mM CaCl2) was immediately added to assess Ca^2+ influx. In other experiments, Ca^2+ dye-labeled human and WT mouse platelets were incubated with a vehicle or an inhibitor for 10 minutes at 37° C. Cytosolic Ca^2+ levels were measured using a FlexStation3 microplate reader with an excitation wavelength of 485 nm and an emission wavelength of 525 nm. Ca^2+ mobilization was quantified by the area under the curve and expressed as a relative fluorescence unit.

[2] = system: human platelets; experiment: Flow cytometry of P-selectin exposure and αIIbβ3 integrin activation, human platelets; format: cell-based; conditions: 3 to 10 μM, human platelets, thrombin or CRP
Text: FIG. 18(A-R) is an exemplary embodiment of novel small-molecule inhibitors recapitulating the defect in Ero1α (endoplasmic reticulum oxidoreductase 1a)-null platelets in accordance with the present disclosure. FIG. 18A: The structure of B12 and its inhibitory effect on ERO1α activity. FIG. 18(B-E): The inhibitory effect of B12 on P-selectin exposure and αIIbβ3 integrin activation in (FIG. 18B and FIG. 18C) mouse and (FIG. 18D and FIG. 18E) human platelets. FIG. 18F: The structure of B12-5 and its inhibitory effect on ERO1α activity. FIG. 18G: A docking model of B12-5-ERO1α (3AHQ) and flavin adenine dinucleotide (FAD)-ERO1α complex. There are pi-sulfur interactions of the phenothiazine head group (B112-5) or a tricyclic ring (FAD) with Met389 and Cys397. Also, there are H bond interactions between the tail/alkyl group and His255, Asn259, and Arg287. […] After incubation with a different concentration of B12-5, the specific interaction between B12-5 and ERO1α was measured by subtracting the nonspecific binding. The KD value was calculated from the Kon and Koff values. […] P values determined by ANOVA and Dunnett test (FIG. 18(B-E), FIG. 18(1-L), and FIG. 18(O-R) [for B12-5]) or Student t test (FIG. 18M, FIG. 18N, and FIG. 18(O-R) [for BAPTA (1,2-bis(o-aminophenoxy)ethane-N,N,N′,N′-tetraacetic acid)]). […]

[3] = target: T1, MAO-B (Homo sapiens, UniProt P27338); conditions: from studies; cited from earlier work
T1 sequence (P27338 1-520): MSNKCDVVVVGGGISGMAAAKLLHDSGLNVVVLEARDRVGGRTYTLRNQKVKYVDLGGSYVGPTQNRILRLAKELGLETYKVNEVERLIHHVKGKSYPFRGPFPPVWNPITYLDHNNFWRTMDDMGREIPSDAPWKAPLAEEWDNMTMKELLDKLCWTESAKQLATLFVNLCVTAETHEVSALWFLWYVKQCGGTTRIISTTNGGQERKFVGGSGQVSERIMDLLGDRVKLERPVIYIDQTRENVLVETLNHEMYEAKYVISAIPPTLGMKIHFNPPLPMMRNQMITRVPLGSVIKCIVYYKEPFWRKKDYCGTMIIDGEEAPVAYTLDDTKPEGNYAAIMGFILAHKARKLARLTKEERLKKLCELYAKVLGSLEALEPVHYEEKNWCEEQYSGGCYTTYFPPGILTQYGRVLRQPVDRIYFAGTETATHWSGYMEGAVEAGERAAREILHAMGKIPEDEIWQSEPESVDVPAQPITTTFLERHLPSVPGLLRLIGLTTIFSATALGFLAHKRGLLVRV

Row | SMILES | Ca2+ release and influx [1] | P-selectin exposure and αIIbβ3 activation [2] | IC50 [3]
1 | O=C(CSc1nc(O)cc(O)n1)N1c2ccccc2Sc2ccccc21 [B12-5] | dose dependently inhibited | significantly reduced | 
2 | O=C(O)c1cc(N2N=C(C(F)(F)F)/C(=C/c3ccc(-c4ccccc4)o3)C2=O)ccc1Cl [EN460] |  |  | 30.6 µM
